Patent publication US8299123B2, “CCR10 antagonists” (Boehringer Ingelheim International GmbH, priority 2007, dated 2012)

SMILES: CCCCOc1ccc(Cl)cc1C(=O)N[C@H]1C[C@@H]1c1ccc(-c2ccc(C(=O)O)cc2)cc1 [Compound 108, 4′-{(1R,2S)-2-[(2-butoxy-5-chlorobenzoyl)amino]cyclopropyl}-biphenyl-4-carboxylic acid]
- melting point: 218 to 222 °C
